Several values for one entry are separate records, joined by “and”; a condition that tells them apart may be missing. Equal entries are not always repeated.

Series [1] can be described thus: Stability comparison of crystal form A and crystal form B (slurry in ethanol, XRPD). Format: physicochemical. To be noted: stirred in ethanol for 16 hrs. The source says: 35 g of the crystal form B of the compound of Formula (II) was weighed, added to ethanol, and stirred for 16 hrs.
A short description of series [2]: Hygroscopicity test by dynamic vapor sorption (DVS). The settings on record: for ΔW, hygroscopic weight gain: 25° C. and 80% RH, DVS; for Classification of hygroscopicity: 25° C./80% RH. Format: physicochemical. How it is done:
Dynamic Vapor Sorption (DVS) of the Present Invention • Instrument model: SMS DVS Intrinsic Dynamic Vapor Sorption Analyzer • Test method: A sample (10-30 mg) is tested in a DVS sample pan. Detailed DVS Parameters: • Temperature: 25° C. • Equilibration: dm/dt=0.002%/min (Minimum: 10 min, Maximum: 180 min) • RH (%) test interval: 10 (0-90%), 5 (90-95%) • RH (%) test interval range: 0-95-0 Hygroscopicity evaluations are classified as follows: [table] Note: AW % represents the hygroscopic weight gain of the test product at 25° C./80% RH. Experimental Method: • 10-30 mg of the crystal form A of the compound of Formula (II) was placed in the DVS sample pan and tested. Experimental Method: • 10-30 mg of the crystal form G of the compound of Formula (III) was placed in the DVS sample pan and tested. Experimental Method: • 10-30 mg of the crystal form J of the compound of Formula (IV) was placed in the DVS sample pan and tested.

With `COc1cc(OC)c(F)c(Cc2c[nH]c3ncc(-c4cnn(CCO)c4)cc23)c1F.Cl`, the “Crystal form conversion (XRPD)” value in series [1] is reported as “can be converted into the crystal form A of the compound of Formula (II)”.
Regarding `COc1cc(OC)c(F)c(Cc2c[nH]c3ncc(-c4cnn(CCO)c4)cc23)c1F.Cc1ccc(S(=O)(=O)O)cc1`, in series [2], the “ΔW, hygroscopic weight gain” value is recorded as 6.077% and the Classification of hygroscopicity result is listed as “hygroscopic”.
As for `COc1cc(OC)c(F)c(Cc2c[nH]c3ncc(-c4cnn(CCO)c4)cc23)c1F`, in series [2], the “ΔW, hygroscopic weight gain” value is 3.829% and 3.928%; the Classification of hygroscopicity result is “hygroscopic”.

The record behind these values is patent US11919898B2, “Crystal form of azaindole derivative and use thereof” (Wuxi Life Fountain Biotech Co., Ltd, priority 2020, dated 2024).
